Experiments:
[1] = target: T1, PAR2 (HT-29 cells, trypsin activation) (Homo sapiens, UniProt P55085); experiment: Ca FLIPR TETRA assay, ANTAGONIST mode, stimulation with 3.1 U/mL trypsin; assay type: cell-based; settings: HT-29 cells
T1 construct: host or cells: HT-29 cells
T1 sequence (P55085 26-397): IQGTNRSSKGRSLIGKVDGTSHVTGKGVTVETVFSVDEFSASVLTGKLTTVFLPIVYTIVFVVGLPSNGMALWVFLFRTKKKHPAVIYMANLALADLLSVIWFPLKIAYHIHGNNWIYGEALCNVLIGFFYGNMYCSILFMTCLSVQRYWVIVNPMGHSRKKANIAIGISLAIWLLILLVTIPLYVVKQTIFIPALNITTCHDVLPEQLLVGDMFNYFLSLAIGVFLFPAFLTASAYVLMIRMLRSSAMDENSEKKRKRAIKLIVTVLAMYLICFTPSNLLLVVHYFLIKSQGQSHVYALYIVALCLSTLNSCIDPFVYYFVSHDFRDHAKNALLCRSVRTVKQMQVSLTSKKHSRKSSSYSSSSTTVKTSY
Outline: (§1)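 Inhibition of activator-evoked Ca2+ flux was recorded on FLIPR Tetra in HT-29 cells after 30 min compound exposure at r.t. A prior read checked whether compounds alone triggered Ca2+ release.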

[2] = system: UTP-stimulated Ca2+ response in HT-29 cells; experiment: Ca FLIPR TETRA assay, ANTAGONIST mode, stimulation with 0.6 μM UTP; assay type: cell-based, human; settings: Homo sapiens, HT-29 cells
Outline: as §1

[3] = system: Thrombin-stimulated Ca2+ response in HT-29 cells; experiment: Ca FLIPR TETRA assay, ANTAGONIST mode, stimulation with 1 U/mL Thrombin; assay type: cell-based, human; settings: Homo sapiens, HT-29 cells
Outline: as §1

[4] = target: T2, PAR2 (HT-29 cells, SLIGKV activation) (Homo sapiens, UniProt P55085); experiment: Ca FLIPR TETRA assay, ANTAGONIST mode, stimulation with 8 μM SLIGKV; assay type: cell-based; settings: HT-29 cells
T2 construct: host or cells: HT-29 cells
T2 sequence (P55085 26-397): T1 sequence (P55085 26-397)
Outline: as §1

[5] = antagonist mode, stimulation with 3.1 U/mL trypsin
[6] = antagonist mode, stimulation with 0.6 μM UTP
[7] = antagonist mode, stimulation with 1 U/mL Thrombin
[8] = antagonist mode, stimulation with 8 μM SLIGKV
[9] = stimulation with 3.1 U/mL trypsin
[10] = stimulation with 1 U/mL Thrombin

SMILES	IC50 [1, 5]	IC50 [2, 6]	IC50 [3, 7]	IC50 [4, 8]	also measured
CC(C)(C)c1cc(-c2ccc(F)cc2)nn2cc(C(=O)N3CCN(C(=O)[C@H]4CC[C@@H](C(=O)O)CC4)CC3(C)C)nc12 [Compound I-493, (1S,4S)-4-(4-(8-(tert-butyl)-6-(4-fluorophenyl)imidazo[1,2-b]pyridazine-2-carbonyl)-3,3-dimethylpiperazine-1-carbonyl)cyclohexane-1-carboxylic acid]	0.5 nM	440 nM	760 nM	0.5 nM	
COC(=O)CCC(=O)N1CCN(C(=O)c2cn3nc(-c4ccc(F)cc4)cc(C(C)(C)C)c3n2)C(C)(C)C1 [Compound I-529]	3.7 nM	> 1000 nM	> 1000 nM	2.2 nM	
Cc1nc(C(=O)N2CCN(C(=O)c3cn4nc(-c5ccc(F)c(Br)c5)cc(C(C)(C)C)c4n3)C(C)(C)C2)n[nH]1 [Compound I-504]	1.5 nM	460 nM	> 1000 nM	1.2 nM	
C[C@H]1C(=O)NCCN1C(=O)c1cn2nc(-c3ccc(F)cc3)cc(C(C)(C)C)c2n1 [Compound I-547]	> 1000 nM	> 1000 nM	> 1000 nM	635 nM	
CC(C)c1cc(-c2cccc(F)c2)nn2cc(C(=O)N3CCNC(=O)C3(C)C)nc12 [Compound I-480]	60 nM	> 1000 nM	> 1000 nM	20 nM	
CC(C)(C)c1cc(-c2ccc(F)cc2)nn2cc(C(=O)N3CCN(C(=O)[C@H]4C[C@H](C(=O)O)C4)CC3(C)C)nc12 [Compound I-556, (1R,3R)-3-(4-(8-(tert-butyl)-6-(4-fluorophenyl)imidazo[1,2-b]pyridazine-2-carbonyl)-3,3-dimethylpiperazine-1-carbonyl)cyclobutane-1-carboxylic acid]					IC50 ([1]; antagonist mode, 3.1 U/mL trypsin): 21 nM; IC50 ([2]; antagonist mode, 0.6 μM UTP): > 1000 nM; IC50 ([3]; antagonist mode, 1 U/mL Thrombin): > 1000 nM; IC50 ([4]; antagonist mode, 8 μM SLIGKV): 9 nM
CC(C)c1cc(-c2ccc(F)cc2)nn2cc(C(=O)N3CCN(C(=O)[C@H](O)C(C)(C)C)[C@@H](C)C3)nc12 [Compound I-152]					IC50 [1, 9]: 54 nM; IC50 ([2]; stimulation with 0.6 μM UTP): 10000 nM; IC50 [3, 10]: 13000 nM; IC50 ([4]; stimulation with 8 μM SLIGKV): 4 nM
CC(C)(C)c1cc(-c2ccc(N=[N+]=[N-])cc2)nn2cc(C(=O)N3CCNC(=O)C3(C)C)nc12 [Compound I-536]	235 nM	> 1000 nM	> 1000 nM	170 nM	
Cc1ccc(-c2cc(C(C)C)c3nc(C(=O)N4CCN(C(=O)c5nnc(C)o5)CC4(C)C)cn3n2)cc1 [Compound I-332]	11.5 nM	> 1000 nM	> 1000 nM	13.3 nM	
CCOC1CCN(C(=O)c2cn3nc(-c4ccc(F)cc4)cc(C)c3n2)CC1 [Compound I-62]					IC50 [1, 9]: 29000 nM; IC50 ([2]; stimulation with 0.6 μM UTP): 44000 nM; IC50 [3, 10]: 38000 nM; IC50 ([4]; stimulation with 8 μM SLIGKV): 7400 nM
Cc1ccc(-c2cc(C(C)C)c3nc(C(=O)N4CCN(C(=O)C(C)(C)O)CC4(C)C)cn3n2)cc1 [Compound I-218]	39.8 nM	> 1000 nM	> 1000 nM	24.8 nM	
Cc1ccc(-c2cc(C(C)C)c3nc(C(=O)N4CCN(C(=O)C5CC(C)(O)C5)CC4(C)C)cn3n2)cc1F (centres unmarked) [Compound I-338]	1.6 nM	> 1000 nM	> 1000 nM	2.2 nM	
Cc1ncc(C(=O)N2CCN(C(=O)c3cn4nc(-c5ccc(C(F)(F)F)cc5)cc(C(C)(C)C)c4n3)C(C)(C)C2)[nH]1 [Compound I-423]	2.2 nM	> 1000 nM	> 1000 nM	1.7 nM	
COC(=O)[C@@H]1C[C@@H](C)CN(C(=O)c2cn3nc(-c4ccc(F)cc4)cc(C(F)(F)F)c3n2)C1 [Compound I-49]					IC50 [1, 9]: 1500 nM; IC50 ([2]; stimulation with 0.6 μM UTP): 6000 nM; IC50 [3, 10]: 5200 nM; IC50 ([4]; stimulation with 8 μM SLIGKV): 530 nM
CC(C)(C)c1cc(-c2ccc(F)cc2)nn2cc(C(=O)N3CCN(C(F)F)C(=O)C3(C)C)nc12 [Compound I-208]	103 nM	> 1000 nM	> 1000 nM	85 nM	
C[C@H]1CN(C(=O)c2cn3nc(-c4ccc(F)cc4)cc(C(F)(F)F)c3n2)CCN1C(=O)[C@H](N)CC1CCCCC1 [Compound I-16, (2R)-2-amino-3-cyclohexyl-1-[(2S)-4-[6-(4-fluorophenyl)-8-(trifluoromethyl)imidazo[1,2-b]pyridazine-2-carbonyl]-2-methyl-piperazin-1-yl]propan-1-one]					IC50 [1, 9]: 280 nM; IC50 ([2]; stimulation with 0.6 μM UTP): 11000 nM; IC50 [3, 10]: 11000 nM; IC50 ([4]; stimulation with 8 μM SLIGKV): 37 nM
CC(C)(C)c1cc(-c2ccc(F)c(Cl)c2)nn2cc(C(=O)N3CCN(C(=O)c4ncccn4)CC3(C)C)nc12 [Compound I-464]	2.2 nM	> 1000 nM	> 1000 nM	1.2 nM	
